The results in this text go back to ChEMBL document CHEMBL4619767, “Precursor-Directed Biosynthesis and Fluorescence Labeling of Clickable Microcystins” (J Nat Prod, 2020).

In data set [1] the test system is HEK293. In words: Cytotoxicity against OATP1B1 (-/-) HEK293 cells incubated for 48 hrs by sulforhodamine B assay. The data set is classed as ADME, cell-based, Homo sapiens. For orientation: In SRB staining, fixed cells bind dye roughly in proportion to their protein.
Data set [2] has as its system HEK293. In words: Cytotoxicity against OATP1B3 (-/-) HEK293 cells incubated for 48 hrs by sulforhodamine B assay. Type of data set: ADME, cell-based, Homo sapiens.
A short description of data set [3]: Drug uptake in OATP1B3 (-/-) HEK293 cells at 100 nM measured up to 8 mins by fluorescence time-lapse microscopy. Particulars: human, hek293, 8 min, 0.1 µM; call rule not given here. Type of data set: ADME, cell-based.
Data set [4] can be described thus: Drug uptake in OATP1B1 (-/-) HEK293 cells at 100 nM measured up to 8 mins by fluorescence time-lapse microscopy. Type of data set: ADME, cell-based. Particulars: human, hek293, 8 min, 0.1 µM.

pEC50: −log10 of the molar value. Numbered stars: 1 amine (or outer) side, 2 acyl side, 3 side chain; on linkers, the order of the positions; unused ones are H or OH. Bridge positions count the residues as written; N and C are the ends. Square brackets hold non-standard residues; d marks the D form. Peptide text beside a SMILES is read from it. * marks the point of attachment. Adda = CO[C@@H](Cc1ccccc1)[C@@H](C)/C=C(C)/C=C/[C@H](N[*:1])[C@H](C)C(=O)[*:2]; dAsp(3S-Me) = C[C@H](C(=O)[*:3])[C@@H](N[*:1])C(=O)[*:2]; d(γGlu) = O=C(O)[C@@H](CCC(=O)[*:2])N[*:1]; NMeDha = C=C(NC)C(=O)O; Propargyl = C#CC*

What is called pEC50 is −log10 of the EC50, conventionally taken in molar units. Read a low pEC50 as a large EC50. As to `C#CCOc1ccc(C[C@@H]2NC(=O)[C@@H](C)NC(=O)C(=C)N(C)C(=O)CC[C@H](C(=O)O)NC(=O)[C@@H](C)[C@H](/C=C/C(C)=C/[C@H](C)[C@H](Cc3ccccc3)OC)NC(=O)[C@H](CCCNC(=N)N)NC(=O)[C@@H](C)[C@H](C(=O)O)NC2=O)cc1` (R[Adda][d(γGlu)][NMeDha][dA]Y(Propargyl)[dAsp(3S-Me)]-OH; lactam N-7), the pEC50 in the data set with HEK293 [1] and in the data set with HEK293 [2] was below 5.70 each time.
Take `C=C1C(=O)N[C@H](C)C(=O)N[C@@H](Cc2ccc(O)cc2)C(=O)N[C@@H](C(=O)O)[C@H](C)C(=O)N[C@@H](CCCNC(=N)N)C(=O)N[C@@H](/C=C/C(C)=C/[C@H](C)[C@H](Cc2ccccc2)OC)[C@H](C)C(=O)N[C@@H](C(=O)O)CCC(=O)N1C` (R[Adda][d(γGlu)][NMeDha][dA]Y[dAsp(3S-Me)]-OH; lactam N-7): the pEC50 with HEK293 [1] and in the data set with HEK293 [2] was below 5.70 throughout.
Turning to `C=C1C(=O)N[C@H](C)C(=O)N[C@@H](Cc2ccc(OCc3cn(-c4cc5ccc(O)cc5oc4=O)nn3)cc2)C(=O)N[C@@H](C(=O)O)[C@H](C)C(=O)N[C@@H](CCCNC(=N)N)C(=O)N[C@@H](/C=C/C(C)=C/[C@H](C)[C@H](Cc2ccccc2)OC)[C@H](C)C(=O)N[C@@H](C(=O)O)CCC(=O)N1C`, the negative logarithm of the EC50 (pEC50) in the data set with HEK293 [1] and in the data set with HEK293 [2] was below 5.70 in each case. The Drug uptake entry in data set [3] and in data set [4] was “Not Active” in each case.
